Measurements: patent US20100216779A1 (GLAXOSMITHKLINE LLC, priority 2007, published 2010)

Columns and labels:
Format in all cases: cell-based
COLO205 (colon) = experiment: Inhibition of cell proliferation, CellTiter-Glo, COLO205; conditions: Homo sapiens, COLO 205, 72 h
Procedure, shortened: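 Exponentially growing COLO205 cells in medium with 10% FBS were plated below 2000 cells/well at 37 °C, 5% CO2. Untreated wells served as controls.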

[1] = test system: NCI-H929 (multiple myeloma); experiment: Inhibition of cell proliferation, CellTiter-Glo, NCI-H929; conditions: Homo sapiens, 72 h
Procedure, shortened: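 Cells were grown in medium with 10% FBS at 37° C, 5% CO2. Cell number was read as CellTiter-Glo luminescence (cellular ATP), with untreated wells as control.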

[2] = target: T1, human IGF-1R (NIH-3T3 cells over expressing human IGF-1R) (Homo sapiens, UniProt P08069); experiment: IGF-1R cellular autophosphorylation (DELFIA); conditions: IGF-1 stimulated
T1 construct: expressed in transfected cells; host or cells: NIH-3T3 (mouse fibroblasts)
Procedure, shortened: (§1)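 Read-out: DELFIA on lysates, receptor-specific capture antibody plus europium-labelled anti-phosphotyrosine, reported as % of IGF-1- or insulin-stimulated signal. Transfected NIH-3T3 cells got compound (30 uM–1.5 nM, 2 h) before a 15 min ligand pulse: IGF-1 30 ng/mL for IGF-1R, insulin 3 ug/mL for IR.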

[3] = target: T2, IR (NIH-3T3 cells over expressing human IGF-1R or IR) (Homo sapiens, UniProt P06213); experiment: IR cellular autophosphorylation (DELFIA); conditions: NIH-3T3 cells over expressing IR, insulin stimulated
T2 construct: expressed in transfected cells; host or cells: NIH-3T3 (mouse fibroblasts)
Procedure, shortened: as §1

T1 sequence (P08069 31-1367): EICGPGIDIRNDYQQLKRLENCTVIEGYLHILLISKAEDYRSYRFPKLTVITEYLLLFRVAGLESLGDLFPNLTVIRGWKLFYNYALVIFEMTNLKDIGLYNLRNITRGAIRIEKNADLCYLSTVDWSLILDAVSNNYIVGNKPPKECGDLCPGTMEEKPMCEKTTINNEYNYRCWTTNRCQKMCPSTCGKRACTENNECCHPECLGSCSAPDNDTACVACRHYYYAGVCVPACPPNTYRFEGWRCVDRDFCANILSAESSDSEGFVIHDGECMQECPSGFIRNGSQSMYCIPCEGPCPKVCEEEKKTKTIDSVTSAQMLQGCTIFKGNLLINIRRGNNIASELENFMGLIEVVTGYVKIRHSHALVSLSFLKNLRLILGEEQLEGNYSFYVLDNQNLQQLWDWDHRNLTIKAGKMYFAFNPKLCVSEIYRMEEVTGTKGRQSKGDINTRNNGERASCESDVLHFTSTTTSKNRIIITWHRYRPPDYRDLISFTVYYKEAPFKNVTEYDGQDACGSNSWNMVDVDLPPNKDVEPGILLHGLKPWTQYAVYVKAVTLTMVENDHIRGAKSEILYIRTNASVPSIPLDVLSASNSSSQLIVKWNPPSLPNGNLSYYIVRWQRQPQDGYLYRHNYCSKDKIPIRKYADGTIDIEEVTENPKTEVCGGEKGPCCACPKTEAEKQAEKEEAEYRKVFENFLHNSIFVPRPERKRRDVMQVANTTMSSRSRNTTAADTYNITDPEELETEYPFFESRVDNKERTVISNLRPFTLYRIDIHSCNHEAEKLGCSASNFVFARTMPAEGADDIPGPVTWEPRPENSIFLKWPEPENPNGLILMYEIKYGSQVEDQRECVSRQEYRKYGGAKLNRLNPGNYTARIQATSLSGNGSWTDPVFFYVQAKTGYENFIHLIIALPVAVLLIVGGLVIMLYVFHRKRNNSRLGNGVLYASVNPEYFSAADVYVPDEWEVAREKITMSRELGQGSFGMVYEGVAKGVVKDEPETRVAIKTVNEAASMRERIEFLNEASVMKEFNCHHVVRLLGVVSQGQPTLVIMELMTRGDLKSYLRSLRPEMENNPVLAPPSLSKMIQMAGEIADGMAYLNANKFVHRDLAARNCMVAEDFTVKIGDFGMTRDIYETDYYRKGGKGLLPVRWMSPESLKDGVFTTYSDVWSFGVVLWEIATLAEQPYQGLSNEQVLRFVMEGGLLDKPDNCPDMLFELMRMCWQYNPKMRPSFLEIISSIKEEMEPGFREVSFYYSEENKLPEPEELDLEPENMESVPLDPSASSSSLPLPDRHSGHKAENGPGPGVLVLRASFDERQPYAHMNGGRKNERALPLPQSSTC
T2 sequence (P06213 28-1382): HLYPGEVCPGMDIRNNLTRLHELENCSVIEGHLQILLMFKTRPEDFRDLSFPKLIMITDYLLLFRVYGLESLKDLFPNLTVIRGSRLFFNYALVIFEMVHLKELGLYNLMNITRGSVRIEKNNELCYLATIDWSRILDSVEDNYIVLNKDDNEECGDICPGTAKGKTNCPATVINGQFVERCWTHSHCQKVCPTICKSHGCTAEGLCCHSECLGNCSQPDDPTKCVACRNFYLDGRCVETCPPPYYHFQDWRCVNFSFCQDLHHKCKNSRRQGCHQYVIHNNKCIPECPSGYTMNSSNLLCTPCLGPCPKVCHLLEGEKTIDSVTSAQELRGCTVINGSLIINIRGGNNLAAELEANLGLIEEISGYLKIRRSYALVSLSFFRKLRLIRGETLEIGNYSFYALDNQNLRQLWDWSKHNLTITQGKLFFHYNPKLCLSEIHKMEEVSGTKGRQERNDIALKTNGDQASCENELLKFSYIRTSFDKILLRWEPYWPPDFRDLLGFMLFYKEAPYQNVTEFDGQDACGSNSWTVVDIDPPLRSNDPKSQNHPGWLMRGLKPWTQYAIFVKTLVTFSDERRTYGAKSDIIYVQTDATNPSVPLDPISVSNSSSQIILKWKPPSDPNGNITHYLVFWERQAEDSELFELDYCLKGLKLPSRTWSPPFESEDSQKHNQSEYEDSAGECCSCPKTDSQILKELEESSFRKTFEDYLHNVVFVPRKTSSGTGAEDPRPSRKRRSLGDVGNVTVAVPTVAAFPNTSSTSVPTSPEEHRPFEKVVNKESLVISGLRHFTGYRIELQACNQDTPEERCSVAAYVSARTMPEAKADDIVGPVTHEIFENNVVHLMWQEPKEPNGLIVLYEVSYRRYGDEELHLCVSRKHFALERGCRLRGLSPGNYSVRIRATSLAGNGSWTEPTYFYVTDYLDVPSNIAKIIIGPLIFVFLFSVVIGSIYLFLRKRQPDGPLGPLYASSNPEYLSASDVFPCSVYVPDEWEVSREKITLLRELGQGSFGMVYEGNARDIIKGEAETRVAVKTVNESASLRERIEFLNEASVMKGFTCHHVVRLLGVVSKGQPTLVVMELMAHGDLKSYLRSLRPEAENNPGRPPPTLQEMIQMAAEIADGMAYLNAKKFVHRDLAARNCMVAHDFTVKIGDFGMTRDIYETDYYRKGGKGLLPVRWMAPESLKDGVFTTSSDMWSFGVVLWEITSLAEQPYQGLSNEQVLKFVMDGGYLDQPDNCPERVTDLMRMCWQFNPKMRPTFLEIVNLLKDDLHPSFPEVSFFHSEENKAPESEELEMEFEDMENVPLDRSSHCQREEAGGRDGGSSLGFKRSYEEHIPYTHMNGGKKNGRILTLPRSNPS

**Q.** What does the source list for `CCOc1ccc(-c2nc3ccccn3c2-c2ccnc(Nc3ccc(N4CCC(N5CCCCC5)CC4)c(C)c3OC)n2)cc1C(=O)Nc1c(F)cccc1F` [Example 56, 5-[3-(2-{[4-(1,4′-bipiperidin-1′-yl)-3-methyl-2-(methyloxy)phenyl]amino}-4-pyrimidinyl)imidazo[1,2-a]pyridin-2-yl]-N-(2,6-difluorophenyl)-2-(ethyloxy)benzamide]?
**A.** IC50 (COLO205 (colon)): > 1000 nM; IC50 [1]: 250 to 1000 nM; IC50 [2]: 100 to 500 nM; IC50 [3]: 100 to 500 nM

**Q.** How did the IC50 (COLO205 (colon)) turn out when `CCCN1CCC(c2cc(OC)c(Nc3nccc(-c4c(-c5ccc(OC)c(C(=O)Nc6c(F)cccc6F)c5)nc5ccccn45)n3)cc2C)CC1` [Example 157, N-(2,6-difluorophenyl)-5-[3-(2-{[5-methyl-2-(methyloxy)-4-(1-propyl-4-piperidinyl)phenyl]-amino}-4-pyrimidinyl)imidazo[1,2-a]pyridin-2-yl]-2-(methyloxy)benzamide] was run?
**A.** < 250 nM

**Q.** And the IC50 [1]?
**A.** < 250 nM

**Q.** And the IC50 [2]?
**A.** < 100 nM

**Q.** And the IC50 [3]?
**A.** < 100 nM

**Q.** Which IC50 (COLO205 (colon)) does the source give for `CCCc1cc(C2CCN(CCS(C)(=O)=O)CC2)ccc1Nc1nccc(-c2c(-c3ccc(OCC)c(C(=O)Nc4c(F)cccc4F)c3)nc3ccccn23)n1` [Example 168, N-(2,6-difluorophenyl)-2-(ethyloxy)-5-(3-{2-[(4-{1-[2-(methylsulfonyl)ethyl]-4-piperidinyl}-2-propylphenyl)amino]-4-pyrimidinyl}imidazo[1,2-a]pyridin-2-yl)benzamide] here?
**A.** 250 to 1000 nM

**Q.** And the IC50 [1]?
**A.** < 250 nM

**Q.** What about the IC50 [2] of the same compound?
**A.** < 100 nM

**Q.** And the IC50 [3]?
**A.** < 100 nM

**Q.** With `COc1cc(N2CCC(N3CCN(S(C)(=O)=O)CC3)CC2)ccc1Nc1nccc(-c2c(-c3cccc(C(=O)Nc4c(F)cccc4F)c3)nc3cc(F)ccn23)n1` [Example 196, N-(2,6-difluorophenyl)-3-(7-fluoro-3-{2-[(2-(methyloxy)-4-{4-[4-(methylsulfonyl)-1-piperazinyl]-1-piperidinyl}phenyl)amino]-4-pyrimidinyl}imidazo[1,2-a]pyridin-2-yl)benzamide] as the compound, how does the IC50 (COLO205 (colon)) read?
**A.** 250 to 1000 nM

**Q.** What about the IC50 [1] of the same compound?
**A.** < 250 nM

**Q.** What about the IC50 [2] of the same compound?
**A.** < 100 nM

**Q.** And the IC50 [3]?
**A.** < 100 nM

**Q.** Which IC50 (COLO205 (colon)) does the source give for `COc1cc(C2CCN(CCS(C)(=O)=O)CC2)ccc1Nc1nccc(-c2c(-c3cccc(C(=O)Nc4c(F)cccc4F)c3)nc3ccccn23)n1` [Example 180, N-(2,6-difluorophenyl)-3-(3-{2-[(2-(methyloxy)-4-{1-[2-(methylsulfonyl)ethyl]-4-piperidinyl}phenyl)amino]-4-pyrimidinyl}imidazo[1,2-a]pyridin-2-yl)benzamide] here?
**A.** 250 to 1000 nM

**Q.** What about the IC50 [1] of the same compound?
**A.** < 250 nM

**Q.** What about the IC50 [2] of the same compound?
**A.** < 100 nM

**Q.** And the IC50 [3]?
**A.** < 100 nM

**Q.** `COc1cc(C2CCN(CCS(C)(=O)=O)CC2)c(C)cc1Nc1nccc(-c2c(-c3cccc(C(=O)Nc4c(F)cccc4F)c3)nc3ccccn23)n1` [Example 165, N-(2,6-difluorophenyl)-3-(3-{2-[(5-methyl-2-(methyloxy)-4-{1-[2-(methylsulfonyl)ethyl]-4-piperidinyl}phenyl)amino]-4-pyrimidinyl}imidazo[1,2-a]pyridin-2-yl)benzamide] was tested. Which IC50 (COLO205 (colon)) did it give?
**A.** 250 to 1000 nM

**Q.** What about the IC50 [1] of the same compound?
**A.** < 250 nM

**Q.** What about the IC50 [2] of the same compound?
**A.** < 100 nM

**Q.** And the IC50 [3]?
**A.** < 100 nM

**Q.** What does the source list for `COc1ccc(-c2nc3ccccn3c2-c2ccnc(Nc3ccc(N4CCC(N5CCCCC5)CC4)c(C)c3OC)n2)cc1C(=O)Nc1c(F)cccc1F` [Example 55, 5-[3-(2-{[4-(1,4′-bipiperidin-1′-yl)-3-methyl-2-(methyloxy)phenyl]amino}-4-pyrimidinyl)imidazo[1,2-a]pyridin-2-yl]-N-(2,6-difluorophenyl)-2-(methyloxy)benzamide]?
**A.** IC50 (COLO205 (colon)): > 1000 nM; IC50 [1]: > 1000 nM; IC50 [2]: 100 to 500 nM; IC50 [3]: > 500 nM

**Q.** How did the IC50 (COLO205 (colon)) turn out when `COc1cc(N2CCC(N3CCN(S(C)(=O)=O)CC3)CC2)ccc1Nc1nccc(-c2c(-c3cccc(C(=O)Nc4c(F)cccc4F)c3)nc3c(F)cccn23)n1` [Example 192, N-(2,6-difluorophenyl)-3-(8-fluoro-3-{2-[(2-(methyloxy)-4-{4-[4-(methylsulfonyl)-1-piperazinyl]-1-piperidinyl}phenyl)amino]-4-pyrimidinyl}imidazo[1,2-a]pyridin-2-yl)benzamide] was run?
**A.** 250 to 1000 nM

**Q.** And the IC50 [1]?
**A.** 250 to 1000 nM

**Q.** What about the IC50 [2] of the same compound?
**A.** < 100 nM

**Q.** And the IC50 [3]?
**A.** 100 to 500 nM

**Q.** What does the source list for `CCCN1CCN(c2ccc(Nc3nccc(-c4c(-c5ccc(OCC)c(C(=O)Nc6c(F)cccc6F)c5)nc5ccccn45)n3)c(OCC)c2)CC1` [Example 152, N-(2,6-difluorophenyl)-2-(ethyloxy)-5-[3-(2-{[2-(ethyloxy)-4-(4-propyl-1-piperazinyl)phenyl]amino}-4-pyrimidinyl)imidazo[1,2-a]pyridin-2-yl]benzamide]?
**A.** IC50 (COLO205 (colon)): 250 to 1000 nM; IC50 [1]: < 250 nM; IC50 [2]: < 100 nM; IC50 [3]: < 100 nM

**Q.** With `CCOc1ccc(-c2nc3ccccn3c2-c2ccnc(Nc3ccc(N4CCC(CCS(C)(=O)=O)CC4)cc3OC)n2)cc1C(=O)Nc1c(F)cccc1F` [Example 200, N-(2,6-difluorophenyl)-2-(ethyloxy)-5-(3-{2-[(2-(methyloxy)-4-{4-[2-(methylsulfonyl)ethyl]-1-piperidinyl}phenyl)amino]-4-pyrimidinyl}imidazo[1,2-a]pyridin-2-yl)benzamide] as the compound, how does the IC50 (COLO205 (colon)) read?
**A.** < 250 nM

**Q.** What about the IC50 [1] of the same compound?
**A.** < 250 nM

**Q.** What about the IC50 [2] of the same compound?
**A.** < 100 nM

**Q.** What about the IC50 [3] of the same compound?
**A.** < 100 nM

**Q.** For `CCOc1ccc(-c2nc3ccccn3c2-c2ccnc(Nc3cc(C)c(N4CCC(CCS(C)(=O)=O)CC4)cc3OC)n2)cc1C(=O)Nc1c(F)cccc1F` [Example 229, N-(2,6-difluorophenyl)-2-(ethyloxy)-5-(3-{2-[(5-methyl-2-(methyloxy)-4-{4-[2-(methylsulfonyl)ethyl]-1-piperidinyl}phenyl)amino]-4-pyrimidinyl}imidazo[1,2-a]pyridin-2-yl)benzamide], which IC50 (COLO205 (colon)) is on record?
**A.** < 250 nM

**Q.** What about the IC50 [1] of the same compound?
**A.** < 250 nM

**Q.** What about the IC50 [2] of the same compound?
**A.** < 100 nM

**Q.** What about the IC50 [3] of the same compound?
**A.** < 100 nM

**Q.** Which results are given for `COc1cc(N2CCC(N3CCN4CCOC[C@@H]4C3)CC2)ccc1Nc1nccc(-c2c(-c3cccc(C(=O)Nc4c(F)cccc4F)c3)nc3ccccn23)n1` [Example 87, N-(2,6-difluorophenyl)-3-[3-(2-{[4-{4-[(9aS)-hexahydropyrazino[2,1-c][1,4]oxazin-8(1H)-yl]-1-piperidinyl}-2-(methyloxy)phenyl]amino}-4-pyrimidinyl)imidazo[1,2-a]pyridin-2-yl]benzamide]?
**A.** IC50 (COLO205 (colon)): 250 to 1000 nM; IC50 [1]: < 250 nM; IC50 [2]: < 100 nM; IC50 [3]: < 100 nM

**Q.** With `COc1cc(N2CCC(N3CCN(CCF)CC3)CC2)ccc1Nc1nccc(-c2c(-c3cccc(C(=O)Nc4c(F)cccc4F)c3)nc3cc(C(F)(F)F)ccn23)n1` [Example 189, N-(2,6-difluorophenyl)-3-[3-(2-{[4-{4-[4-(2-fluoroethyl)-1-piperazinyl]-1-piperidinyl}-2-(methyloxy)phenyl]amino}-4-pyrimidinyl)-7-(trifluoromethyl)imidazo[1,2-a]pyridin-2-yl]benzamide] as the compound, how does the IC50 (COLO205 (colon)) read?
**A.** > 1000 nM

**Q.** What about the IC50 [1] of the same compound?
**A.** 250 to 1000 nM

**Q.** What about the IC50 [2] of the same compound?
**A.** 100 to 500 nM

**Q.** What about the IC50 [3] of the same compound?
**A.** > 500 nM

**Q.** What does the source list for `CCOc1cc(N2CCC(CCS(C)(=O)=O)CC2)c(CC)cc1Nc1nccc(-c2c(-c3ccc(OC)c(C(=O)Nc4c(F)cccc4F)c3)nc3ccccn23)n1` [Example 210, N-(2,6-difluorophenyl)-5-[3-{2-[(5-ethyl-2-(ethyloxy)-4-{4-[2-(methylsulfonyl)ethyl]-1-piperidinyl}phenyl)amino]-4-pyrimidinyl}imidazo[1,2-a]pyridin-2-yl)-2-(methyloxy)benzamide]?
**A.** IC50 (COLO205 (colon)): < 250 nM; IC50 [1]: < 250 nM; IC50 [2]: < 100 nM; IC50 [3]: < 100 nM

**Q.** With `COc1cc(N2CCC(N3CCN(CCF)CC3)CC2)c(C)cc1Nc1nccc(-c2c(-c3cccc(C(=O)Nc4c(F)cccc4F)c3)nc3ccccn23)n1` [Example 113, N-(2,6-difluorophenyl)-3-[3-(2-{[4-{4-[4-(2-fluoroethyl)-1-piperazinyl]-1-piperidinyl}-5-methyl-2-(methyloxy)phenyl]amino]-4-pyrimidinyl)imidazo[1,2-a]pyridin-2-yl]benzamide] as the compound, how does the IC50 (COLO205 (colon)) read?
**A.** > 1000 nM

**Q.** What about the IC50 [1] of the same compound?
**A.** 250 to 1000 nM

**Q.** And the IC50 [2]?
**A.** < 100 nM

**Q.** And the IC50 [3]?
**A.** < 100 nM

**Q.** With `CCN1CCN(C2CCN(c3ccc(Nc4nccc(-c5c(-c6cccc(C(=O)Nc7c(F)cccc7F)c6)nc6ccccn56)n4)c(OC)c3)CC2)CC1` [Example 64, N-(2,6-difluorophenyl)-3-[3-(2-{[4-[4-(4-ethyl-1-piperazinyl)-1-piperidinyl]-2-(methyloxy)phenyl]amino}-4-pyrimidinyl)imidazo[1,2-a]pyridin-2-yl]benzamide] as the compound, how does the IC50 (COLO205 (colon)) read?
**A.** 250 to 1000 nM

**Q.** And the IC50 [1]?
**A.** < 250 nM

**Q.** What about the IC50 [2] of the same compound?
**A.** 100 to 500 nM

**Q.** What about the IC50 [3] of the same compound?
**A.** < 100 nM

**Q.** Which results are given for `CCc1cc(Nc2nccc(-c3c(-c4cccc(C(=O)Nc5c(F)cccc5F)c4)nc4ccccn34)n2)c(OC)cc1N1CCC(N2CCN(S(C)(=O)=O)CC2)CC1` [Example 244, N-(2,6-difluorophenyl)-3-(3-{2-[(5-ethyl-2-(methyloxy)-4-{4-[4-(methylsulfonyl)-1-piperazinyl]-1-piperidinyl}phenyl)amino]-4-pyrimidinyl}imidazo[1,2-a]pyridin-2-yl)benzamide]?
**A.** IC50 (COLO205 (colon)): 250 to 1000 nM; IC50 [1]: 250 to 1000 nM; IC50 [2]: < 100 nM; IC50 [3]: < 100 nM

**Q.** With `COc1cc(C2CCN(CCS(C)(=O)=O)CC2)c(C)cc1Nc1nccc(-c2c(-c3ccc(OC)c(C(=O)Nc4c(F)cccc4F)c3)nc3ccccn23)n1` [Example 163, N-(2,6-difluorophenyl)-5-(3-{2-[(5-methyl-2-(methyloxy)-4-{1-[2-(methylsulfonyl)ethyl]-4-piperidinyl}phenyl)amino]-4-pyrimidinyl}imidazo[1,2-a]pyridin-2-yl)-2-(methyloxy)benzamide] as the compound, how does the IC50 (COLO205 (colon)) read?
**A.** 250 to 1000 nM

**Q.** What about the IC50 [1] of the same compound?
**A.** < 250 nM

**Q.** What about the IC50 [2] of the same compound?
**A.** < 100 nM

**Q.** What about the IC50 [3] of the same compound?
**A.** < 100 nM
